Reference: patent US20090318354A1, “Use of at least one isoform of progesterone receptor membrane component 1 (PGRMC1)” (PROTEOSYS AG, priority 2006, published 2009)

How the values were obtained:
MCF7 breast cancer cells = test: ATP-TCA cell viability assay in MCF7 cells and MCF7 cells stably expressing PGRMC1 WT or mutants; type: cell-based, human
AKT = details: S56A/S180A and Y179F/S180A mutants, H2O2 even at 1 mM
From the text: Antibodies employed were specific for phosphorylated AKT (top), for the polypeptide backbone of AKT (middle), or for the HA-tag on the respective exogenously expressed PGRMC1 constructs.

[1] = tested on: breast cancer exhibiting a positive ER status; details: patients suffering from breast cancer exhibiting a positive ER status; cited from earlier work

Molecule: OO [H2O2, hydrogen peroxide]
- cell viability (MCF7 breast cancer cells; MCF7 cells, 50 μM H2O2, RPMI with 10% FCS): reduced cell viability
- phosphorylation of AKT upon H2O2 treatment (AKT): neither of the mutants that survived H2O2 treatment in FIG. 10B exhibited phosphorylation of AKT

Molecule: CC(=O)[C@H]1CC[C@H]2[C@@H]3CCC4=CC(=O)CC[C@]4(C)[C@H]3CC[C@]12C [Progesterone, progesterone]
- proliferative effect relative to other cells (MCF7 breast cancer cells; PGRMC1-WT cell line, progesterone 10^-7 M, 5 days, charcoal-treated FCS): marginal proliferative effect
- viability of cells (MCF7 breast cancer cells; cells generally, progesterone 10^-7 M, charcoal-treated FCS, 5 days): not affected greatly

Molecule: CC[C@H](C)C(=O)O[C@H]1C[C@@H](C)C=C2C=C[C@H](C)[C@H](CC[C@@H]3C[C@@H](O)CC(=O)O3)[C@H]21 [lovastatin]
- viability (MCF7 breast cancer cells; PGRMC1 Y179F/S180A mutant, lower concentrations of lovastatin): improved viability
- viability (MCF7 breast cancer cells; all cell lines, high levels of lovastatin, 2 days, charcoal-treated FCS): reduced

Molecule: CC/C(=C(\c1ccccc1)c1ccc(OCCN(C)C)cc1)c1ccccc1 [tamoxifen]
- resistance of clone to Tamoxifen (MCF7 breast cancer cells; clone S56A/S180A, comparable to wild-type PGRMC1 control or native MCF7 cells): exhibited resistance
- susceptibility of clone to Tamoxifen (MCF7 breast cancer cells; clone S180A): highly susceptible
- viability of cells (MCF7 breast cancer cells; tamoxifen 10^-8 M, charcoal-treated FCS, 5 days): reduced viability
- cases in which treatment is effective [1]: approximately 50%

Molecule: estrogen
- viability of cells (MCF7 breast cancer cells; estrogen 10^-9 M added to RPMI with charcoal-treated FCS, 5 days): improved
- rescue of impaired viability in the presence of tamoxifen (MCF7 breast cancer cells; estrogen 10^-9 M plus tamoxifen 10^-8 M): could not rescue

Molecule: methyl-β-cyclodextrin
- cell viability relative to MCF7 control cells (MCF7 breast cancer cells; cells expressing all PGRMC1 mutants except S180A, 5 mM methyl-beta-cyclodextrin, 2 h, charcoal-treated FCS): drastically reduced cell viability
